# Laboratory results published in patent US5002773A, “Transdermal delivery of (+) (2S,3S)-3-acetoxy-8-chloro-5-(2-dimethylaminoethyl)-2,3-dihydro-2-(4-met hoxyphenyl)-1,5-benzothiazepin-4-(5H)-one” (Marion Merrell Dow Inc., priority 1989, dated 1991).
# Where a name gives a salt, the structure may show the parent alone.
# How the values were obtained:
# [1] = Intrinsic in-vitro skin permeability of diltiazem (side-by-side diffusion cell); assay type: in vitro ADME, hairless mouse; conditions: skin permeation rate/solubility, mean and SD, n=3
# Method: About 2.5 cm×2.5 cm portion of freshly excised hairless mouse skin (5-7 week old, male) prepared as described in Example 4 above, was mounted between the two chambers of the side-by-side diffusion cell and securely clamped. […] 5% Trycol® solution in normal saline, prepared as described in Example 4 above, was introduced into the receptor compartment (the side facing the dermis side of the skin). Both donor and receptor compartments were maintained at 37° C. by a thermostatically controlled circulating water bath. At predetermined time intervals (usually at 3, 6, 12 and 24 hours) the entire volume of the receptor solution was withdrawn and immediately replaced with the same volume of fresh, drug-free Trycol® solution at 37° C. to maintain the […]. […] Slope of this line gave the value of skin permeation rate (mcg/cm^2 /hr).
# [2] = Method: The model used is an in-vitro excised hairless mouse skin model which is known in the art. The permeation rates of TA-3090 through the excised skin were measured using a Franz diffusion cell.
# In-vitro evaluation of transdermal patches was accomplished using an excised hairless mouse/Franz diffusion cell model (available from Crown Glass Company, Somerville, N.J.) as follows. Immediately following sacrifice by cervical dislocation (or by CO2 gas), a portion (about 3.5 cm×3.5 cm) of the full-thickness abdominal skin was carefully excised from the hairless mouse (5-7 week old, male). The dermal side of the skin was carefully cleaned of any adhering subcutaneous tissue and/or blood vessels. […]
# At a predetermined time interval (usually 4, 8, 12 and 24 hours), the entire volume of the receptor solution was withdrawn and immediately replaced with the same volume of the fresh, drug-free Trycol solution at 37° C. to maintain the sink condition. The concentration of TA-3090 in the sample was determined by a sensitive HPLC method. From the concentration profiles of TA-3090 in the receptor compartment, the flux (mcg/cm^2) of skin permeation was calculated using a computer program and then plotted as a function of time (hour). […]
# [3] = Intrinsic in-vitro skin permeability of TA-3090 at various pH conditions (side-by-side diffusion cell); assay type: in vitro ADME, hairless mouse; conditions: for Papp: mouse, skin permeation rate/solubility, mean and SD, n=3
# Method: (§1) TA-3090 skin permeability was determined using a freshly excised hairless mouse skin and a side-by-side type of diffusion cell (available from Crown Glass Co., Somerville, N.J.). About 2.5 cm×2.5 cm portion of freshly excised hairless mouse skin (5-7 week old, male), prepared as described in Example 4, was mounted between the two chambers of the side-by-side diffusion cell and securely clamped. Saturated solution (with some extra drug in suspension state) of TA-3090 free base in phosphate buffer solution maintained at a particular pH was introduced into the donor side (the side facing the stratum corneum). 5% Trycol® solution in normal saline, prepared as described in Example 4, was introduced in the receptor compartment (the side facing the dermis side of the skin). Both donor and receptor compartments were maintained at 37° C. by a thermostatically controlled circulating water bath. At predetermined time intervals (usually at 3, 6, 12 and 24 hours) the entire volume of the receptor solution was withdrawn and immediately replaced with the same volume of the fresh, drug-free Trycol® solution at 37° C. to maintain the sink condition. […] From the concentration profiles of TA-3090 in the receptor compartment, the flux (mcg/cm^2) of skin permeation was calculated using a computer program and then plotted as a function of time (hour). Slope of this line gave the value of skin permeation rate (mcg/cm^2 /hr).
# [4] = Solubility of TA-3090 in donor solution; assay type: physicochemical; conditions: aqueous buffer, phosphate buffer, 37° C., mean and SD, n=3
# Method: as §1
# [5] = Aqueous solubility of TA-3090 free base with 5% PEG 20 Oleyl ether; assay type: physicochemical; conditions: with 5% PEG 20 Oleyl ether as solubilizer
# Method: The aqueous solubility of TA-3090 free base was improved by the incorporation of 5% PEG 20 Oleyl ether as a solubilizer to maintain an effective sink condition required in the investigation, which simulates the biological sink achieved by hemoperfusion. […] Following this, the saline solution containing 5% w/w PEG 20 Oleyl ether (Trycol®) at 37° C. was introduced into the receptor compartment, which was thermostatically controlled at 37° C. by a circulating water bath.
# [6] = once-a-day oral dose; background statement; cited from earlier work
# calcium channel = conditions: background statement; cited from earlier work
# in vivo = conditions: guinea pig, plasma, topical or ocular
# [7] = literature statement; cited from earlier work
smiles,measurement,setting,value
"COc1ccc([C@@H]2Sc3ccccc3N(CCN(C)C)C(=O)[C@@H]2OC(C)=O)cc1 [diltiazem free base, diltiazem]",Intrinsic Permeability,[1],186.96 ± 49.74 (cm/hr) × 10^-5
"COc1ccc([C@@H]2Sc3cc(Cl)ccc3N(CCN(C)C)C(=O)[C@@H]2OC(C)=O)cc1 [TA-3090, (+)(2S,3S)-3-acetoxy-8-chloro-5-(2-dimethylaminoethyl)-2,3-dihydro-2-(4-methoxyphenyl)-1,5-benzothiazepin-4-(5H)-one]",rate of administration from the transdermal delivery device,[2],0.6 to 29.62 mcg/cm^2 /hr
same,Papp,[3]; donor side pH 5,1.81 ×10⁻⁶ cm/s
same,Papp,[3]; donor side pH 7,13.4 ×10⁻⁶ cm/s
same,Papp,[3]; donor side pH 9,30.6 ×10⁻⁶ cm/s
same,Skin Permeation Rate,[3]; pH 5,49.04 ± 8.76 mcg/cm^2 /hr
same,Skin Permeation Rate,[3]; pH 7,29.39 ± 11.61 mcg/cm^2 /hr
same,Skin Permeation Rate,[3]; pH 9,6.75 ± 1.54 mcg/cm^2 /hr
same,solubility,[4]; donor side pH 5,7730 ± 1130 µg/mL
same,solubility,[4]; donor side pH 7,600 ± 20 µg/mL
same,solubility,[4]; donor side pH 9,60 ± 4 µg/mL
same,aqueous solubility,[5],improved
same,oral absorption,[6],incomplete oral absorption
same,vasodilating activity,calcium channel,potent vasodilating activity
same,concentration at 4 h,in vivo,11.4 ± 4.09 ng/mL
same,concentration at 8 h,in vivo,32.5 ± 4.56 ng/mL
same,concentration at 24 h,in vivo,75.6 ng/mL
same,concentration at 48 h,in vivo,71.1 ± 43.1 ng/mL
"COc1ccc([C@@H]2Sc3ccccc3N(CCN(C)C)C(=O)[C@@H]2OC(C)=O)cc1 [diltiazem HCl, diltiazem hydrochloride]",Intrinsic Permeability,[1]; hydrochloride,1.66 ± 0.43 (cm/hr) × 10^-5
same,permeability through skin / percutaneous absorption,[7],poor percutaneous absorption
